Results reported in US4289748A, “Ultrasensitive enzymatic radioimmunoassay method” (United States of America, priority 1979, dated 1981).

Legend:
[1] = target: alkaline phosphatase-IgG conjugate (Bos taurus, UniProt P19111); test: Effect of reaction products on the alkaline phosphatase-IgG conjugate assay (tritium-AMP hydrolysis); format: biochemical, calf; settings: 100 picamole tritium-AMP, 10 mM buffer pH 9.0, 37° C.
Experimental: Triplicates of the assay mixture containing 100 picamole of tritium-AMP and 10^-8 milligrams of enzyme conjugate in 0.1 milliliter of 10 mM buffer with a pH of 9.0 were incubated at 37° C. from 0 to 48 hours. Aliquots of 50 microliters of the reaction mixtures were withdrawn for determination of enzyme activity at 0.5, 1.5, 4.5, 24 and 48 hours. The enzyme activity was nearly linear for 90 minutes with approximately 2% of the tritium-AMP hydrolyzed to tritium-adenosine and phosphate. At 24 and 48 hours, the enzyme reaction became slower. Since the tritium-AMP radioindicator was still in excess, the reduction of enzyme activity could be secondary to enzyme degradation and/or product inhibition. To determine the effects of reaction products on the assay, either phosphate (2 or 20 picamoles) or adenosine (20 picamoles) was added to the assay mixtures. 2 and 20 picamole phosphate inhibited alkaline phosphatase activity by 8% and 90% respectively. […] The variation in the triplicate samples was small. For reaction times of less than 5 hours, the variation in either duplicate or triplicate samples was less than 10% of the mean value.

[2] = target: alkaline phosphatase-IgG (goat anti-rabbit) conjugate (Bos taurus, UniProt P19111); test: Enzyme kinetics of alkaline phosphatase-IgG conjugate with varying AMP concentrations, double reciprocal plot; format: biochemical, calf; settings: 10 mM diethanolamine buffer pH 9.8, 37° C., 30 minutes, conjugate 2×10^-8 mg/ml; double reciprocal plot (FIG. 4b)
Sequence of alkaline phosphatase-IgG (goat anti-rabbit) conjugate (P19111 20-506 limits assumed): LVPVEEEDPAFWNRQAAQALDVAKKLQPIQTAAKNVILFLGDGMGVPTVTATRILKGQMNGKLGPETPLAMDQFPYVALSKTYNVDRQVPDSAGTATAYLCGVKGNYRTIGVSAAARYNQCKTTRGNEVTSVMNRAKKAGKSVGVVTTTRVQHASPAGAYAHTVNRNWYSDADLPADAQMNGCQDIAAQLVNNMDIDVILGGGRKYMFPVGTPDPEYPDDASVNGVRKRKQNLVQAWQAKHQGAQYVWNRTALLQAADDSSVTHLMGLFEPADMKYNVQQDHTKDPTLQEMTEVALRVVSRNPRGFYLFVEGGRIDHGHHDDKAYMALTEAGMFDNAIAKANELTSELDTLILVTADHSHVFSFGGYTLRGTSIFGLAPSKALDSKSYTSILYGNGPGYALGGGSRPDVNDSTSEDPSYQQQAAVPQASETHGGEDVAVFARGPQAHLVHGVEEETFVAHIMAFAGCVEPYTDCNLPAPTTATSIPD
Experimental: To determine the enzyme kinetics of alkaline phosphatase-IgG (goat anti-rabbit) conjugate, varying concentrations of adenosine-5'-monophosphate were added to a 10^6 dilution of the enzyme-IgG conjugate. […] Alkaline phosphatase conjugate (2×10^-8 milligrams per milliliter) was added to 10 mM diethanolamine buffer having a pH of 9.8, containing various concentrations of AMP. The reaction mixtures were incubated at 37° C. for 30 minutes. The tritium-labelled adenosine released was determined by column chromatography utilizing DEAE Sephadex by applying an 0.05 milliliter aliquot of the reaction mixture to a column packed with 1.5 milliliters DEAE Sephadex A-25 followed by elutation with a total of 4.5 milliliters of 0.01 M diethanolamine buffer with a pH of 9.8, containing 0.1 mM unlabelled adenosine in two fractions. 20 ml of liquid scintillator, Aquasol®, was added to each fraction and the tritium-labelled adenosine was measured in a liquid scintillation counter. The Km was calculated to be approximately 4 mM by a double reciprocal plot of the Michalis-Menton equation which is shown in FIG. 4b. […] The counting of the actual scintillation counter was adjusted in accordance with standard techniques to yield DPM, disintegrations per minute. Varying concentrations of diethanolomine buffer and MgCl2 were tested. […]

Sequence of alkaline phosphatase-IgG conjugate (P19111 20-506 limits assumed): as above

phosphate
inhibition of alkaline phosphatase activity ([1]; 2 picamole phosphate added to 0.1 ml assay mixture): 8%
inhibition of alkaline phosphatase activity ([1]; 20 picamole phosphate added to 0.1 ml assay mixture): 90%

Nc1ncnc2c1ncn2[C@@H]1O[C@H](COP(=O)(O)O)[C@@H](O)[C@H]1O [adenosine-5'-monophosphate]
Km [2]: ~4 mM

Nc1ncnc2c1ncn2[C@@H]1O[C@H](CO)[C@@H](O)[C@H]1O [adenosine]
effect on the activity of the phosphatase ([1]; 20 picamole adenosine added to 0.1 ml assay mixture): no detectable effect
